Structures can show the parent of a compound that is named as a salt. Where two headings read alike, the source gives them in different places.
Tests used:
[1] = system: human platelet rich plasma (PRP); experiment: ADP induced platelet aggregation assay
[2] = biological target: cloned human P2Y1 receptors (Homo sapiens (Human), UniProt P47900); experiment: Binding Assay B - Scintillation Proximity Assay (SPA) for P2Y1 binding, [33P] 2MeS-ADP; conditions: SPA, 0.3 nM [33P] 2MeS-ADP, Cheng-Prusoff; read-out: P2Y1 Ki (nM) using binding assay B
Sequence of cloned human P2Y1 receptors (P47900 whole entry): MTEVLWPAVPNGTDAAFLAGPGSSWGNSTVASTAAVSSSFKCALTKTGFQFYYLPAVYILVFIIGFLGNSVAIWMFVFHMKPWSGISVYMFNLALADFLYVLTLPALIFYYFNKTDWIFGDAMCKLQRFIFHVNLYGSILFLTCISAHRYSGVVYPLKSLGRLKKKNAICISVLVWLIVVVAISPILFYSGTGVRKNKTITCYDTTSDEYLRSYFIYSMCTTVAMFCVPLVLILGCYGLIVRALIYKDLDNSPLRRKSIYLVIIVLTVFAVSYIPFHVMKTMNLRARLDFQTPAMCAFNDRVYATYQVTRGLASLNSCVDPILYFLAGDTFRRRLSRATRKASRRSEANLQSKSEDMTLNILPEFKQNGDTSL
Protocol: Binding Assay B—Scintillation Proximity Assay (SPA) for P2Y1 Binding
A SPA membrane binding assay was used to identify inhibitors of [^33P] […] Reactions were allowed to proceed to completion at room temperature for 1 hour followed by centrifugation of the plate for 5 min. About 40 μL of the aqueous solution was aspirated. Plates were sealed and the [^33P]

[3] = Homo sapiens, Platelet, 5 min, read-out: PA IC50 (μM) @ 10 μM ADP, human PRP, 10 μM ADP, AUC at 5 minute
[4] = read-out: PA IC50 (μM) @ 10 μM ADP, human PRP, 10 μM ADP, AUC at 5 minute

Compound | IC50 [1, 3] [µM] | Ki [2] [nM] | IC50 [1, 4] [µM]
CC(C)(C)c1ccc(NC(=O)Nc2ccccc2N2CC(C)(C)c3ccccc32)cc1 [Comparator 1, reference compound] | > 20 | 12.9 | 
CC1(C)CN(c2ccccc2NC(=O)Nc2ccc(OC(F)(F)F)cc2)c2ccccc21 [Comparator 2, reference compound] | > 20 | 8.7 | 
CC(C)(C)c1ccccc1Oc1ncccc1NC(=O)Nc1ccccc1N1CC(C)(C)c2ccccc21 [Comparator 3, reference compound] | > 20 | 759 | 
CC1(C)CN(c2ccccc2NC(=O)Nc2nc3ccc(F)cc3s2)c2c(O)ccc(Br)c21 [Example 1, 1-(2-(4-Bromo-7-hydroxy-3,3-dimethylindolin-1-yl)phenyl)-3-(6-fluorobenzo[d]thiazol-2-yl)urea] | 0.47 | 10.8 | 
CC(C)(C)CN1CCC(c2ccc(NC(=O)Nc3ccccc3N3CC(C)(C)c4c(C(F)(F)F)ccc(O)c43)cc2)CC1 [Example 2, 1-(2-(7-Hydroxy-3,3-dimethyl-4-(trifluoromethyl)indolin-1-yl)phenyl)-3-(4-(1-neopentylpiperidin-4-yl)phenyl)urea] | 0.13 | 3.4 | 
CC1(C)CN(c2ccccc2NC(=O)NC2CCN(CC(F)(F)F)CC2)c2c(O)ccc(C(F)(F)F)c21 [Example 3, 1-(2-(7-Hydroxy-3,3-dimethyl-4-(trifluoromethyl)indolin-1-yl)phenyl)-3-(1-(2,2,2-trifluoroethyl)piperidin-4-yl)urea] | 3.1 | 4.9 | 
CCC1(CC)CN(c2ccccc2NC(=O)Nc2ccc(C3CCN(CC(C)(C)C)CC3)cc2)c2c(O)ccc(F)c21 [Example 4, 1-(2-(3,3-Diethyl-4-fluoro-7-hydroxyindolin-1-yl)phenyl)-3-(4-(1-neopentylpiperidin-4-yl)phenyl)urea] | 0.36 | 5.6 | 
CCC1(CC)CN(c2ccccc2NC(=O)Nc2ccc(OC(F)(F)F)cc2)c2c(O)cc(F)cc21 [Example 5, 1-(2-(3,3-Diethyl-5-fluoro-7-hydroxyindolin-1-yl)phenyl)-3-(4-(trifluoromethoxy)phenyl)urea] | 1.05 | 16 | 
CC1(C)CN(c2ccccc2NC(=O)Nc2csc(Cl)n2)c2c(O)ccc(Br)c21 [Example 6, 1-(2-(4-Bromo-7-hydroxy-3,3-dimethylindolin-1-yl)phenyl)-3-(2-chlorothiazol-4-yl)urea] | 0.31 | 24.4 | 
CCC1(CC)CN(c2ccccc2NC(=O)Nc2ccc(C3CCCN3CC(C)(C)C)cc2)c2c(O)cccc21 (stereo not drawn) [Example 7, 1-(2-(3,3-Diethyl-7-hydroxyindolin-1-yl)phenyl)-3-(4-(1-neopentylpyrrolidin-2-yl)phenyl)urea] | 0.55 | 8.6 | 
CCC1(CC)CN(c2ccccc2NC(=O)Nc2ccc(C3CCCN3CC(C)C)cc2)c2c(O)cccc21 (stereo not drawn) [Example 8] | 0.31 | 18.6 | 
CCC1(CC)CN(c2ccccc2NC(=O)Nc2nc3ccc(Cl)cc3s2)c2c(O)cccc21 [Example 9, 1-(6-Chlorobenzo[d]thiazol-2-yl)-3-(2-(3,3-diethyl-7-hydroxyindolin-1-yl)phenyl)urea] | 0.39 | 14.2 | 
CCC1(CC)CN(c2ccccc2NC(=O)Nc2nc3ccc(C)cc3s2)c2c(O)cccc21 [Example 10, 1-(2-(3,3-Diethyl-7-hydroxyindolin-1-yl)phenyl)-3-(6-methylbenzo[d]thiazol-2-yl)urea] | 0.54 | 7.6 | 
CC(C)CN1CCCC1c1ccc(NC(=O)Nc2ccccc2N2CC(C)(C)c3cccc(O)c32)cc1 (stereo not drawn) [Example 11, 1-(2-(7-Hydroxy-3,3-dimethylindolin-1-yl)phenyl)-3-(4-(1-isobutylpyrrolidin-2-yl)phenyl)urea] | 1.08 | 36.8 | 
CC1(C)CN(c2ccccc2NC(=O)Nc2ccc(OC(F)(F)F)cc2)c2c(O)ccc(C(F)(F)F)c21 [Example 12, 1-(2-(7-Hydroxy-3,3-dimethyl-4-(trifluoromethyl)indolin-1-yl)phenyl)-3-(4-(trifluoromethoxy)phenyl)urea] | 0.2 | 5 | 
CC(C)(C)c1ccc(NC(=O)Nc2ccccc2N2CC(C)(C)c3c(C(F)(F)F)ccc(O)c32)cc1 [Example 13, 1-(4-tert-Butylphenyl)-3-(2-(7-hydroxy-3,3-dimethyl-4-(trifluoromethyl)indolin-1-yl)phenyl)urea] | 0.13 | 8.2 | 

Compound | IC50 [1, 3] [µM] | Ki [2] [nM] | IC50 [1, 4] [µM]
CC1(C)CN(c2ccccc2NC(=O)Nc2ccc(F)cc2F)c2c(O)ccc(C(F)(F)F)c21 [Example 14, 1-(2,4-Difluorophenyl)-3-(2-(7-hydroxy-3,3-dimethyl-4-(trifluoromethyl)indolin-1-yl)phenyl)urea] | 0.48 | 5.2 | 
CC1(C)CN(c2ccccc2NC(=O)Nc2nc3ccc(Cl)nc3s2)c2c(O)cc(F)c(-c3ccc(Cl)s3)c21 [Example 145, 1-(5-Chlorothiazolo[5,4-b]pyridin-2-yl)-3-(2-(4-(5-chlorothiophen-2-yl)-5-fluoro-7-hydroxy-3,3-dimethylindolin-1-yl)phenyl)urea] | 0.13 |  | 
CC1(C)CN(c2ccccc2NC(=O)Nc2nc3ccc(Cl)cc3s2)c2c(O)cc(F)c(-c3nc4cc(Cl)ccc4s3)c21 [Example 156, 1-(6-Chlorobenzo[d]thiazol-2-yl)-3-(2-(4-(5-chlorobenzo[d]thiazol-2-yl)-5-fluoro-7-hydroxy-3,3-dimethylindolin-1-yl)phenyl)urea] | 0.97 |  | 
CC1(C)CN(c2ccccc2NC(=O)Nc2ccc(OC(F)(F)F)cc2)c2c(O)cc(F)c(-c3ncc(Br)cn3)c21 [Example 166, 1-(2-(4-(5-Bromopyrimidin-2-yl)-5-fluoro-7-hydroxy-3,3-dimethylindolin-1-yl)phenyl)-3-(4-(trifluoromethoxy)phenyl)urea] | 1.25 |  | 
CC1(C)CN(c2ccccc2NC(=O)Nc2csc(Cl)n2)c2c(O)cc(F)c(-c3nc4cc(Cl)ccc4s3)c21 [Example 167, 1-(2-(4-(5-Chlorobenzo[d]thiazol-2-yl)-5-fluoro-7-hydroxy-3,3-dimethylindolin-1-yl)phenyl)-3-(2-chlorothiazol-4-yl)urea] | 0.47 |  | 
CC1(C)CN(c2ccccc2NC(=O)Nc2csc(Cl)n2)c2c(O)cc(F)c(-c3ccc(C(F)(F)F)cn3)c21 [Example 169, 1-(2-Chlorothiazol-4-yl)-3-(2-(5-fluoro-7-hydroxy-3,3-dimethyl-4-(5-(trifluoromethyl)pyridin-2-yl)indolin-1-yl)phenyl)urea] | 0.1 |  | 
CC1(C)CN(c2ccccc2NC(=O)Nc2nc3ccc(Cl)cc3s2)c2c(O)ccc(-c3nc4cc(F)ccc4s3)c21 [Example 172, 1-(6-Chlorobenzo[d]thiazol-2-yl)-3-(2-(4-(5-fluorobenzo[d]thiazol-2-yl)-7-hydroxy-3,3-dimethylindolin-1-yl)phenyl)urea, TFA] | 0.26 |  | 
CC1(C)CN(c2ccccc2NC(=O)Nc2ccc(OC(F)(F)F)cc2)c2c(O)c(F)cc(-c3nc4cc(Cl)ccc4s3)c21 [Example 177, 1-(2-(4-(5-Chlorobenzo[d]thiazol-2-yl)-6-fluoro-7-hydroxy-3,3-dimethylindolin-1-yl)phenyl)-3-(4-(trifluoromethoxy)phenyl)urea] | 2.3 |  | 
CC1(C)CN(c2ccccc2NC(=O)Nc2nc3ccc(F)cc3s2)c2c(O)cc(F)c(-c3ccc(F)cc3)c21 [Example 219, 1-(2-(5-Fluoro-4-(4-fluorophenyl)-7-hydroxy-3,3-dimethylindolin-1-yl)phenyl)-3-(6-fluorobenzo[d]thiazol-2-yl)urea] |  |  | 0.36
CC1(C)CN(c2ccccc2NC(=O)Nc2ccc(OC(F)(F)F)cc2)c2c(O)cc(F)c(-c3ccc(Cl)cc3)c21 [Example 220, 1-(2-(4-(4-Chlorophenyl)-5-fluoro-7-hydroxy-3,3-dimethylindolin-1-yl)phenyl)-3-(4-(trifluoromethoxy)phenyl)urea] |  |  | 0.24
CC1(C)CN(c2ccccc2NC(=O)Nc2csc(Cl)n2)c2c(O)cc(F)c(-c3ccc(Cl)cc3)c21 [Example 221, 1-(2-(4-(4-Chlorophenyl)-5-fluoro-7-hydroxy-3,3-dimethylindolin-1-yl)phenyl)-3-(2-chlorothiazol-4-yl)urea] |  |  | 0.13
CC1(C)CN(c2ccccc2NC(=O)Nc2ccc(OC(F)(F)F)cc2)c2c(O)cc(F)c(-c3ccc(C(F)(F)F)cc3)c21 [Example 222, 1-(2-(5-Fluoro-7-hydroxy-3,3-dimethyl-4-(4-(trifluoromethyl)phenyl)indolin-1-yl)phenyl)-3-(4-(trifluoromethoxy)phenyl)urea] |  | 35 | 
CC1(C)CN(c2ccccc2NC(=O)Nc2csc(C(F)(F)F)n2)c2c(O)cc(F)c(-c3ccc(Cl)cc3)c21 [Example 223, 1-(2-(4-(4-Chlorophenyl)-5-fluoro-7-hydroxy-3,3-dimethylindolin-1-yl)phenyl)-3-(2-(trifluoromethyl)thiazol-4-yl)urea] |  | 34.4 | 
COC(=O)c1ccc(-c2c(F)cc(O)c3c2C(C)(C)CN3c2ccccc2NC(=O)Nc2ccc(OC(F)(F)F)cc2)cc1 [Example 244, Methyl 4-(5-fluoro-7-hydroxy-3,3-dimethyl-1-(2-(3-(4-(trifluoromethoxy)phenyl)ureido)phenyl)indolin-4-yl)benzoate] | 0.3 |  | 
CC1(C)CN(c2ccccc2NC(=O)Nc2ccc(OC(F)(F)F)cc2)c2c(O)cc(F)c(-c3cc(C(F)(F)F)n[nH]3)c21 [Example 275, 1-(2-(5-Fluoro-7-hydroxy-3,3-dimethyl 4-(3-(trifluoromethyl)-1H-pyrazol-5-yl)indolin-1-yl)phenyl)-3-(4-(trifluoromethoxy)phenyl)urea] | 5.69 |  | 

Reference: patent US9540323B2 (BRISTOL-MYERS SQUIBB COMPANY, priority 2012, dated 2017)
